From US9161935B2 (TEVA PHARMACEUTICAL INDUSTRIES, LTD., priority 2012, dated 2015)

System: Subjects with moderate to severe Crohn's disease (CD)
Experiment: Phase IIb trial LAQ-CD-202 (Example 3)
Type: in vivo, human
Protocol: Capsules should be swallowed with a glass of water.
On Days 1 and 2, this dose is administered twice daily (BID) as a loading dose (total daily dose 0.5 mg). Dosing is once daily (QD) from Day 3 onwards.
On Days 1 and 2, this dose is administered BID as a loading dose (total daily dose 1 mg). Dosing is QD from Day 3 onwards.
Subjects with moderate to severe Crohn's disease (CD), as determined by a Crohn's Disease Activity Index (CDAI) score of 220-450 (inclusive).
Remission: subjects with CDAI <150 subjects not designated a Treatment Failure (TF).
Response 100: reduction of CDAI by at least 100 points compared to Baseline in subjects not designated a Treatment Failure (TF). Any subject with Remission is also considered to have achieved Response 100.
Response 70: reduction of CDAI by at least 70 points compared to Baseline, in subjects not designated a TF.
IBDQ Response: An increase from baseline in total IBDQ score of ≧16 points.
IBDQ Remission: A total IBDQ score of >170 points.
Treatment duration is 8 weeks. Scheduled in-clinic visits are conducted at Screening, Baseline (Week 0), and at Weeks 1, 2, 4, 6, and 8. Unscheduled visits for safety or for any other reason may be conducted at any time during the study
A loading dose regimen of the study drug is given during the first 2 days of treatment (Day 1 [Baseline] and Day 2). The first loading dose of the study drug is administered at the site. The loading dose doubles the intended dose for the first 2 days and is administered BID with 12-hour intervals between dosing. Thereafter, starting on Day 3, the dosing regimen consists of the intended dose QD.
During the study period the CDAI score is assessed in addition to routine safety. Subjects are required to maintain CDAI diaries for each day of the Screening period and, if randomized, on each day of the treatment period. The scores obtained from the 7 consecutive diaries completed prior to the Baseline visit and to each of Weeks 1, 2, 4, 6, and 8 contribute to a total CDAI score at each of these time points.
The primary efficacy endpoint is the proportion of subjects achieving Remission (CDAI <150) at Week 8 with subjects not designated a Treatment Failure (TF).
Secondary Efficacy Endpoints: • Proportion of subjects achieving Response 70 at Week 8. • Proportion of subjects achieving Response 100 at Week 8. • Mean change in total IBDQ score from Baseline to Week 8. • Proportion of subjects with an IBDQ Response at Week 8. • Proportion of subjects with IBDQ Remission at Week 8.

CCN(C(=O)c1c(O)c2c(Cl)cccc2n(C)c1=O)c1ccccc1 [laquinimod]
effective: improve IBDQ score from Baseline by Week 8 (0.25 mg/day) | induce IBDQ Response and/or IBDQ Remission by Week 8 (0.25 mg/day) | induce Remission (CDAI <150) by Week 8 (0.25 mg/day) | induce Response 70 and/or Response 100 by Week 8 (0.25 mg/day) | improve IBDQ score from Baseline by Week 8 (0.5 mg/day) | induce IBDQ Response and/or IBDQ Remission by Week 8 (0.5 mg/day) | induce Remission (CDAI <150) by Week 8 (0.5 mg/day) | induce Response 70 and/or Response 100 by Week 8 (0.5 mg/day)
